Consider 13 molecules from patent US5140009A (Tap Pharmaceuticals, Inc., priority 1990, dated 1992).

Numbered stars: 1 amine (or outer) side, 2 acyl side, 3 side chain; on linkers, the order of the positions; unused ones are H or OH. Square brackets hold non-standard residues; d marks the D form. Peptide text beside a SMILES is read from it. * marks the point of attachment. Propanoyl(3-indol-3-yl) = O=C(CCc1c[nH]c2ccccc12)*; Propanoyl(3-(4-F-phenyl)) = O=C(CCc1ccc(F)cc1)*; Phe(4-Cl) = N[C@@H](Cc1ccc(Cl)cc1)C(=O)O; dPhe(4-Cl) = N[C@H](Cc1ccc(Cl)cc1)C(=O)O; 1Nal = N[C@@H](Cc1cccc2ccccc12)C(=O)O; d1Nal = N[C@H](Cc1cccc2ccccc12)C(=O)O; Lys(iPr) = CC(C)NCCCC[C@H](N)C(=O)O; NMeY = CN[C@@H](Cc1ccc(O)cc1)C(=O)O; Benzoyl(4-F) = O=C(c1ccc(F)cc1)*; d3Pal = N[C@H](Cc1cccnc1)C(=O)O; d2Thi = N[C@H](Cc1cccs1)C(=O)O; Nicotinoyl = O=C(c1cccnc1)*; Morpholide = C1CN(*)CCO1; Orn = NCCC[C@H](N)C(=O)O; CO = O=C([*:1])[*:2]; Bn = c1ccc(C*)cc1; Sar = CNCC(=O)O

The target in the first assay is T1, LHRH receptors (Rattus norvegicus, UniProt P30969).
T1 construct: Pituitary membranes containing LHRH receptors are prepared in batches from quick-frozen rat pituitaries; tissue Hilltop Labs; host or cells: rat pituitary membranes
T1 sequence (P30969 1-327): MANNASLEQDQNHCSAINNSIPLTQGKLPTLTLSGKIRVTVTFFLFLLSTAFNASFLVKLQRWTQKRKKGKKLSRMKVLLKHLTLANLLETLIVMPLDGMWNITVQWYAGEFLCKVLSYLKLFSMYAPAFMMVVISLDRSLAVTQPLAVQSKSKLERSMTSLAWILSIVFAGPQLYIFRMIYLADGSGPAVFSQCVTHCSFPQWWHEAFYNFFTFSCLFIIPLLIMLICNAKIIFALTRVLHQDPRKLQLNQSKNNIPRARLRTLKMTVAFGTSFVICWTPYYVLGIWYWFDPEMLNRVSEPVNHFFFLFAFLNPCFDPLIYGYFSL
Briefly: Receptor Binding (radioligand receptor binding assay). The settings on record: table 3; rat pituitary membranes, radioiodinated [D-Leu^6 -des Gly^10 ]-LHRH ethyl amide 50 pM, 2 hours at 4° C.; read-out: Receptor Binding pkI (converted).
As for `CCNC(=O)[C@@H]1CCCN1C(=O)[C@H](CCCNC(=N)N)NC(=O)[C@H](CC(C)C)NC(=O)[C@@H](CCCCNC(=O)c1cccnc1)NC(=O)[C@H](Cc1ccc(O)cc1)NC(=O)[C@H](CO)NC(=O)CCc1c[nH]c2ccccc12` [Compound 52] ({Propanoyl(3-indol-3-yl)}-SY[dK](Nicotinoyl)LRP-NHEt), the Ki is 21.9 nM.

In the case of `CCNC(=O)[C@@H]1CCCN1C(=O)[C@H](CCCNC(=N)N)NC(=O)[C@H](CC(C)C)NC(=O)[C@@H](Cc1c[nH]c2ccccc12)NC(=O)[C@H](Cc1ccc(O)cc1)NC(=O)[C@H](CO)NC(=O)[C@@H](Cc1ccc(O)cc1)NC(=O)[C@H](Cc1ccccc1)NC(=O)N1CCOCC1` [Compound 108, (2-9)[N-(N-alpha-Morpholinocarbonyl)-Phe^2 -D-Tyr^3 -D-Trp^6 -Pro^9 NHEt]LHRH] ({Morpholide-CO}-F[dY]SY[dW]LRP-NHEt), the Ki was 0.182 nM.

Turning to `CCNC(=O)[C@@H]1CCCN1C(=O)[C@H](CCCN=C(N)N)NC(=O)[C@H](CC(C)C)NC(=O)[C@@H](CCCCNC(=O)c1cccnc1)NC(=O)[C@H](Cc1ccc(O)cc1)NC(=O)[C@H](CO)NC(=O)[C@H](Cc1c[nH]c2ccccc12)NC(=O)CCc1ccc(F)cc1` [Compound 119, N-(3-(4-Fluorophenyl)propionyl)-Trp-Ser-Tyr-D-Lys(Nic) -Leu-Arg-Pro-NHEt] ({Propanoyl(3-(4-F-phenyl))}-WSY[dK](Nicotinoyl)LRP-NHEt), the Ki was 0.347 nM.

Staying with this assay, now noted: table 4; rat pituitary membranes, radioligand 50 pM, 2 hours at 4° C.; read-out: Receptor Binding pkI (converted).
Turning to `CCNC(=O)[C@@H]1CCCN1C(=O)[C@H](CCCN=C(N)N)NC(=O)[C@H](CC(C)C)NC(=O)[C@@H](Cc1ccc(O)cc1)NC(=O)[C@H](Cc1ccc(O)cc1)NC(=O)[C@H](CO)NC(=O)[C@@H](Cc1c[nH]c2ccccc12)NC(=O)CCc1ccc(F)cc1` [Compound 150, (3-9)[N-(3-(4-Fluorophenyl)propionyl) -D-Trp^3 -D-Tyr^6 -Pro^9 NHEt]LHRH] ({Propanoyl(3-(4-F-phenyl))}-[dW]SY[dY]LRP-NHEt), the Ki is 0.0102 nM.

As to `CCNC(=O)[C@@H]1CCCN1C(=O)[C@H](CCCNC(=N)N)NC(=O)[C@H](CC(C)C)NC(=O)[C@@H](Cc1c[nH]c2ccccc12)NC(=O)[C@H](Cc1ccc(O)cc1)N(C)C(=O)[C@H](CO)NC(=O)[C@H](Cc1cccc2ccccc12)NC(=O)CCc1ccc(F)cc1` [Compound 158, (3-9)[N-(3-(4-Fluorophenyl)propionyl) -1-Nal^3 -NMeTyr^5 -DTrp^6 -Pro^9 NHEt]LHRH] ({Propanoyl(3-(4-F-phenyl))}-[1Nal]S[NMeY][dW]LRP-NHEt), the Ki is 0.0174 nM.

As to `CC(C)C[C@H](NC(=O)[C@@H](CCCCN)NC(=O)[C@H](Cc1ccc(O)cc1)N(C)C(=O)[C@H](CO)NC(=O)[C@@H](Cc1cccs1)NC(=O)[C@H](Cc1ccc(Cl)cc1)NC(=O)N1CCOCC1)C(=O)N[C@@H](CCCNC(=N)N)C(=O)N1CCC[C@H]1C(=O)N[C@H](C)C(N)=O` [Compound 230, (2-10)[N-(alpha-Morpholinocarbonyl)-4-Cl-Phe^2 -D-Thia^3 -NMeTyr^5 -D-Lys^6 -D-Ala^10]LHRH] ({Morpholide-CO}-[Phe(4-Cl)][d2Thi]S[NMeY][dK]LRP[dA]-NH2), the Ki was 0.11 nM.

Consider `CC(C)C[C@H](NC(=O)[C@@H](CCCCNC(=O)c1cccnc1)NC(=O)[C@H](Cc1ccc(O)cc1)N(C)C(=O)[C@H](CO)NC(=O)[C@@H](Cc1cccc2ccccc12)NC(=O)CCc1ccc(F)cc1)C(=O)N[C@@H](CCCNC(=N)N)C(=O)N1CCC[C@H]1C(=O)N[C@H](C)C(N)=O` [Compound 174, (3-10)[N-(3-(4-Fluorophenyl)propionyl)-D-1-Nal^3 -NMeTyr^5 -D-Lys^6 (N-epsilon-nicotinyl)-D-Ala^10]LHRH] ({Propanoyl(3-(4-F-phenyl))}-[d1Nal]S[NMeY][dK](Nicotinoyl)LRP[dA]-NH2), for which the Ki was 0.0132 nM.

As to `CC(C)C[C@H](NC(=O)[C@@H](Cc1cccnc1)NC(=O)[C@H](Cc1ccc(O)cc1)NC(=O)[C@H](COCc1ccccc1)NC(=O)[C@@H](Cc1cccc2ccccc12)NC(=O)CCc1ccc(F)cc1)C(=O)N[C@@H](CCCCNC(C)C)C(=O)N1CCC[C@H]1C(=O)N[C@H](C)C(N)=O` [Compound 202, (3-10)[N-(3-(4-Fluorophenyl)propionyl)-D-1-Nal^3 -Ser^4 (O-Bzl)-D-3-Pal^6 -Lys^8 (N-epsilon-isopropyl)-D-Ala^10]LHRH] ({Propanoyl(3-(4-F-phenyl))}-[d1Nal]S(Bn)Y[d3Pal]L[Lys(iPr)]P[dA]-NH2), the Ki is 0.138 nM.

As for `CC(C)C[C@H](NC(=O)[C@@H](Cc1cccnc1)NC(=O)[C@H](Cc1ccc(O)cc1)N(C)C(=O)[C@H](CO)NC(=O)[C@@H](Cc1cccc2ccccc12)NC(=O)CCc1ccc(F)cc1)C(=O)N[C@@H](CCCCNC(C)C)C(=O)N1CCC[C@H]1C(=O)N[C@H](C)C(N)=O` [Compound 208, (3-10)[N-(3-(4-Fluorophenyl)propionyl)-D-1-Nal^3 -NMeTyr^5 -D-3-Pal^6 -Lys^8 (N-epsilon-isopropyl)-D-Ala^10]LHRH] ({Propanoyl(3-(4-F-phenyl))}-[d1Nal]S[NMeY][d3Pal]L[Lys(iPr)]P[dA]-NH2), the Ki was 0.0126 nM.

As for `CC(C)C[C@H](NC(=O)[C@@H](Cc1c[nH]c2ccccc12)NC(=O)[C@H](Cc1ccc(O)cc1)NC(=O)[C@H](CO)NC(=O)[C@@H](Cc1c[nH]c2ccccc12)NC(=O)CCc1ccc(F)cc1)C(=O)N[C@@H](CCCNC(=N)N)C(=O)N1CCC[C@H]1C(=O)N[C@H](C)C(N)=O` [Compound 162, (3-10)[N-(3-(4-Fluorophenyl)propionyl)-D-Trp^3,6 -D-Ala^10]LHRH] ({Propanoyl(3-(4-F-phenyl))}-[dW]SY[dW]LRP[dA]-NH2), the Ki was 0.0105 nM.

Regarding `CC(=O)NCCC[C@H](NC(=O)c1ccc(F)cc1)C(=O)N[C@H](Cc1cccc2ccccc12)C(=O)N[C@@H](CO)C(=O)N[C@@H](Cc1ccc(O)cc1)C(=O)N[C@H](CCCCNC(=O)c1cccnc1)C(=O)N[C@@H](CC(C)C)C(=O)N[C@@H](CCCNC(=N)N)C(=O)N1CCC[C@H]1C(=O)N[C@H](C)C(N)=O` [Compound 217, N-alpha-(4-Fluorobenzoyl)-Orn(N-delta-acetyl)-D-1-Nal-Ser-Tyr-D-Lys(N-epsilon-nicotinyl)-Leu-Arg-Pro-D-AlaNH2] ({Benzoyl(4-F)}-[Orn](Ac)[d1Nal]SY[dK](Nicotinoyl)LRP[dA]-NH2), the Ki was 1.91 nM.

In the case of `CC(C)C[C@H](NC(=O)[C@@H](CCCCNC(=O)c1cccnc1)NC(=O)[C@H](Cc1ccc(O)cc1)N(C)C(=O)[C@H](CO)NC(=O)[C@@H](Cc1cccc2ccccc12)NC(=O)CCc1ccc(F)cc1)C(=O)N[C@@H](CCCCNC(C)C)C(=O)N1CCC[C@H]1C(=O)N(C)CC(N)=O` [Compound 255, N-(3-(4-Fluorophenyl)propionyl)-D-1-Nal-Ser-NMeTyr-D-Lys(N-epsilon-nicotinyl)-Leu-Lys(N-epsilon-isopropyl)-Pro-SarNH2] ({Propanoyl(3-(4-F-phenyl))}-[d1Nal]S[NMeY][dK](Nicotinoyl)L[Lys(iPr)]P[Sar]-NH2), the Ki is 0.0151 nM.

Take `CC(C)C[C@H](NC(=O)[C@@H](CCCCN)NC(=O)[C@H](Cc1ccc(O)cc1)N(C)C(=O)[C@H](CO)NC(=O)[C@@H](Cc1ccc(Cl)cc1)NC(=O)CCc1ccc(F)cc1)C(=O)N[C@@H](CCCNC(=N)N)C(=O)N1CCC[C@H]1C(=O)N[C@H](C)C(N)=O` [Compound 175, (3-10)[N-(3-(4-Fluorophenyl)propionyl)-D-4-Cl-Phe^3 -NMeTyr^5 -D-Lys^6 -D-Ala^10]LHRH] ({Propanoyl(3-(4-F-phenyl))}-[dPhe(4-Cl)]S[NMeY][dK]LRP[dA]-NH2): the Ki is 0.00631 nM.
